Experimental data: the supplement of paper PMC6045584
± gives the standard deviation of the averaged measurements.

Tests used:
CRIZOTINIB = compound: C[C@@H](Oc1cc(-c2cnn(C3CCNCC3)c2)cnc1N)c1c(Cl)ccc(F)c1Cl [CRIZOTINIB]; assay: surviving fraction relative to DMSO-only wells; higher = less growth inhibition; conditions: exposure time: 5 days
Summary of the method: (§1)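 Surviving fraction is CellTiter-Glo luminescence divided by the median of wells given DMSO only. For this, log-phase tumour cell lines went into 384-well plates at 250–500 cells per well and, 24 hours later, into five days of continuous inhibitor exposure at 0.5, 1, 5, 10, 50, 100, 500 and 1000 nM. Lines were screened three times and retained only if replicate Pearson r >0.7 and median Z' >0.3.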

OLAPARIB = compound: O=C(c1cc(Cc2n[nH]c(=O)c3ccccc23)ccc1F)N1CCN(C(=O)C2CC2)CC1 [OLAPARIB]; assay: as above; conditions: exposure time: 5 days
Summary of the method: as §1

Test System	surviving fraction (CRIZOTINIB; 0.5 nM)	surviving fraction (CRIZOTINIB; 1 nM)	surviving fraction (CRIZOTINIB; 50 nM)	surviving fraction (CRIZOTINIB; 100 nM)	surviving fraction (CRIZOTINIB; 500 nM)	surviving fraction (CRIZOTINIB; 1000 nM)	surviving fraction (OLAPARIB; 0.5 nM)	surviving fraction (OLAPARIB; 1 nM)	surviving fraction (OLAPARIB; 5 nM)	surviving fraction (OLAPARIB; 10 nM)	surviving fraction (OLAPARIB; 50 nM)	surviving fraction (OLAPARIB; 100 nM)	surviving fraction (OLAPARIB; 500 nM)	surviving fraction (OLAPARIB; 1000 nM)	surviving fraction (CRIZOTINIB; 5 nM)	surviving fraction (CRIZOTINIB; 10 nM)
A549 LUNG	1.07 ± 0.027	1.07 ± 0.015	1.09 ± 0.023	1.1 ± 0.025	1.09 ± 0.043	0.649 ± 0.07	1.06 ± 0.036	1.07 ± 0.042	1.06 ± 0.031	1.05 ± 0.035	1.06 ± 0.025	1.04 ± 0.045	1.09 ± 0.021	1.02 ± 0.057		
HELA CERVIX	1.09 ± 0.057	1.07 ± 0.062	1.09 ± 0.12	1.07 ± 0.08	1.09 ± 0.072	0.581 ± 0.028	1.05 ± 0.064	1.09 ± 0.025	1.05 ± 0.031	1.04 ± 0.036	1.13 ± 0.03	1.18 ± 0.092	1.17 ± 0.014	1.19 ± 0.019	1.08 ± 0.055	1.09 ± 0.03
SJSA1 BONE	1.72 ± 0.049	1.69 ± 0.11	0.796 ± 0.079	1.57 ± 0.021	1.62 ± 0.037	1.06 ± 0.11	1 ± 0.025	1.01 ± 0.045	1.03 ± 0.061	1.02 ± 0.066	1.01 ± 0.083	0.963 ± 0.024	0.931 ± 0.051	0.876 ± 0.039	1.65 ± 0.11	1.719 ± 0.008
HCC1806 BREAST	1.02 ± 0.13	1.09 ± 0.056	1.13 ± 0.066		0.634 ± 0.036	0.318 ± 0.007	0.945 ± 0.059	1.01 ± 0.063	1.05 ± 0.099	0.984 ± 0.068	0.896 ± 0.12	0.74 ± 0.041	0.582 ± 0.065	0.567 ± 0.066	1.1 ± 0.065	
MDAMB361 BREAST	0.815 ± 0.053	0.898 ± 0.094	0.828 ± 0.07		0.882 ± 0.067	1.03 ± 0.095	0.82 ± 0.026	0.793 ± 0.076	0.773 ± 0.094	0.767 ± 0.042	0.612 ± 0.064	0.603 ± 0.048	0.577 ± 0.051	0.523 ± 0.036	0.881 ± 0.035	0.848 ± 0.079
HCT15 LARGE INTESTINE	1.05 ± 0.083	1.1 ± 0.1	1.18 ± 0.042	1.17 ± 0.04	1.09 ± 0.049	0.265 ± 0.022	1.09 ± 0.06	1.06 ± 0.022	1.01 ± 0.085	1.05 ± 0.065	0.998 ± 0.043	1.04 ± 0.018	0.999 ± 0.055	1.03 ± 0.034	1.14 ± 0.044	
SCC003 HEADNECK	1.07 ± 0.043		1.06 ± 0.045	1.09 ± 0.058	0.929 ± 0.1	0.793 ± 0.044	1.14 ± 0.066	1.03 ± 0.079	1.01 ± 0.072	1.09 ± 0.11	1.13 ± 0.052	1 ± 0.046	0.974 ± 0.12	0.881 ± 0.083	1.08 ± 0.13	1.06 ± 0.064
MHM BONE	1.03 ± 0.037	1.02 ± 0.034	1.07 ± 0.02	1.05 ± 0.021	0.96 ± 0.011	0.884 ± 0.031	1.001 ± 0.0057	1.02 ± 0.014	1.04 ± 0.022	1.02 ± 0.021	1.1 ± 0.018	1.052 ± 0.0081	1.04 ± 0.018	1.02 ± 0.028	1.09 ± 0.053	1.1 ± 0.047
SG43 HEADNECK	1.28 ± 0.25	1.06 ± 0.15	0.87 ± 0.073	0.756 ± 0.094	0.586 ± 0.027	0.271 ± 0.03	1.18 ± 0.24	0.979 ± 0.16	0.835 ± 0.043	0.882 ± 0.095	1.19 ± 0.025	1.01 ± 0.059	0.982 ± 0.11	0.935 ± 0.042	1.02 ± 0.062	0.947 ± 0.31
MDAMB134 BREAST		1.01 ± 0.028	0.91 ± 0.0085		1.05 ± 0.019	0.947 ± 0.026	0.96 ± 0.055	1.04 ± 0.17	1.04 ± 0.13	1.05 ± 0.03	0.971 ± 0.21	0.738 ± 0.042	0.8595 ± 0.0035	0.823 ± 0.028	0.93 ± 0.068	1.06 ± 0.04
SG27 HEADNECK	1.25 ± 0.084	1.09 ± 0.11	1.12 ± 0.17	1.11 ± 0.091	1.18 ± 0.13		1 ± 0.049	1.05 ± 0.14	0.969 ± 0.093	0.991 ± 0.1	0.916 ± 0.074	0.995 ± 0.092	0.981 ± 0.22	1.02 ± 0.11		1.14 ± 0.022
OS25HAL BONE	1.06 ± 0.031	1.01 ± 0.028			0.929 ± 0.098	0.326 ± 0.016	1.01 ± 0.015	1.01 ± 0.033	1.04 ± 0.015	1.02 ± 0.025	1.05 ± 0.019	1.01 ± 0.017	1.005 ± 0.0085	0.99 ± 0.012		
NY BONE	1.07 ± 0.052	1.06 ± 0.047	1.08 ± 0.035	1.02 ± 0.021	0.883 ± 0.026	0.577 ± 0.018	1.01 ± 0.016	1.03 ± 0.013	1.05 ± 0.039	1.05 ± 0.061	1.09 ± 0.031	1.06 ± 0.055	0.95 ± 0.022	0.849 ± 0.04	1.12 ± 0.041	1.09 ± 0.038
KPD BONE	0.936 ± 0.05	1.01 ± 0.038				0.245 ± 0.011	0.983 ± 0.011	0.946 ± 0.024	0.969 ± 0.024	0.995 ± 0.093	0.959 ± 0.059	0.965 ± 0.022	0.765 ± 0.007	0.711 ± 0.033		1.16 ± 0.03
SNU475 LIVER	1.03 ± 0.029	1.08 ± 0.012	1.01 ± 0.016	1.02 ± 0.03	0.948 ± 0.052	0.809 ± 0.024	1 ± 0.079	0.957 ± 0.032	1 ± 0.039	0.994 ± 0.07	0.893 ± 0.059	0.8737 ± 0.0067	0.918 ± 0.013	0.838 ± 0.016	1.08 ± 0.062	1.1 ± 0.027
JURKAT HAEMATOPOIETIC AND LYMPHOID TISSUE	1.04 ± 0.011			0.928 ± 0.028	0.212 ± 0.0087	0.306 ± 0.011	1.1 ± 0.022	1.12 ± 0.03	1.08 ± 0.03	1.07 ± 0.014	1.038 ± 0.0047	0.994 ± 0.024	1 ± 0.019	0.847 ± 0.029		0.96 ± 0.035
MDAMB468 BREAST	1.08 ± 0.018	1.12 ± 0.072	1.16 ± 0.029	1.06 ± 0.015	0.666 ± 0.039	0.276 ± 0.007	0.928 ± 0.045	0.907 ± 0.026	0.935 ± 0.025	0.942 ± 0.029	0.861 ± 0.031	0.849 ± 0.049	0.835 ± 0.04	0.595 ± 0.047	1.11 ± 0.023	1.1 ± 0.094
HSSYII SYNOVIAL	1.04 ± 0.045	1.03 ± 0.037	0.934 ± 0.034		0.392 ± 0.037	0.189 ± 0.0013	0.941 ± 0.039	0.949 ± 0.027	0.882 ± 0.076	0.86 ± 0.013	0.827 ± 0.022	0.769 ± 0.055	0.6097 ± 0.0048	0.484 ± 0.046	1.03 ± 0.05	1 ± 0.083
NCIH441 LUNG	1.23 ± 0.069	1.2 ± 0.067	1.04 ± 0.045	0.967 ± 0.089	1.02 ± 0.058	0.83 ± 0.16	1.02 ± 0.14	1.11 ± 0.052	0.998 ± 0.034	1.06 ± 0.068	1.02 ± 0.042	0.98 ± 0.037	0.98 ± 0.064	1.01 ± 0.042	1.09 ± 0.038	1.12 ± 0.043
LM7 BONE		1.01 ± 0.043	1.04 ± 0.051	1.12 ± 0.07	0.591 ± 0.046	0.221 ± 0.0062	1 ± 0.081	0.976 ± 0.058	1.02 ± 0.071	0.963 ± 0.015	0.812 ± 0.042	0.829 ± 0.02	0.614 ± 0.0076	0.554 ± 0.014	1.07 ± 0.067	
MFM223 BREAST	1.21 ± 0.058	1.2 ± 0.019	1.07 ± 0.058		1.07 ± 0.011	1.084 ± 0.0027	1.13 ± 0.02	1.14 ± 0.1	1.13 ± 0.041	1.09 ± 0.085	0.87 ± 0.029	0.787 ± 0.037	0.748 ± 0.052	0.712 ± 0.025	1.21 ± 0.058	1.11 ± 0.033
MDAMB453 BREAST	1.1 ± 0.049	1.06 ± 0.064		1.11 ± 0.039	0.844 ± 0.042	0.803 ± 0.043	0.989 ± 0.063	1 ± 0.036	0.989 ± 0.07	0.964 ± 0.059	0.966 ± 0.042	0.936 ± 0.018	1.03 ± 0.025	0.916 ± 0.025	1.17 ± 0.079	1.14 ± 0.12
